# From patent US20160220567A1, “COMPOSITION FOR TREATING OR PREVENTING BONE DISEASES, COMPRISING HALOFUGINONE AS ACTIVE INGREDIENT” (THE CATHOLIC UNIVERSITY OF KOREA INDUSTRY-ACADEMIC …, priority 2013, published 2016)
# Legend:
# [1] = test system: IL-17 production of T cells via IDO in dendritic cells; experiment: IL-17 ELISA in co-culture of halofuginone-stimulated dendritic cells and T cells; format: cell-based
# Protocol: The dendritic cells cultured for 2 days after stimulating with halofuginone and the T cells cultured for 2 days under the condition of differentiating Th17 cells of <2-2> were co-cultured for 2 additional days, and IL-17 was measured using the supernatant by ELISA. That is, the supernatants of the cell cultures were collected and the amount of IL-17 was measured via sandwich ELISA method. To this end, first, the 96-well plate was treated with monoclonal anti-IL-17 ([…]) and reacted at 4° C. overnight, and upon reaction, non-specific binding was blocked using a blocking solution (1% BSA/PBST). Then, IL-17 in a half amount was diluted continuously and used as standards, and the supernatants of cell cultures were reacted at room temperature for 2 hours. Then, the biotinylated anti-IL-17 were reacted at room temperature for 2 hours, washed 4 times, and added with ExtraAvidin-alkaline phosphatase conjugate after dilution, and reacted at room temperature for 2 hours. Subsequently, PNPP/DEA solution was added thereto to develop color and the absorbance was measured at 405 nm.
# [2] = test system: osteoclasts from murine bone marrow cells; experiment: Bone resorption potential by osteoclasts on Dentine slice, murine bone marrow cells; format: cell-based, mouse; settings: M-CSF, RANKL, 21 days, FIG. 5B
# Protocol: To examine the effect of halofuginone on the bone resorption potential by osteoclasts, murine bone marrow cells were cultured in Dentine slice, and the cultured cells were stimulated with M-CSF, RANKL, and halofuginone, and cultured for 21 additional days. Then, the cells were removed using 5% sodium hypochlorite solution, subjected to Hematoxylin staining, and the bone resorption lacunae formed by the bone resorption of osteoclasts were photographed.
# [3] = test system: Th17, Th1 and Th2 cells from splenocytes; experiment: Differentiation of Th17-, Th1-, and Th2 cells from mouse splenocytes by halofuginone treatment; format: cell-based
# Protocol: Splenocytes were obtained from mice, that is, the spleens removed from the mice and the spleen tissues were thinly ground using a tearing slide and the red blood cells (RBC) in the splenocytes were removed with the RBC lysis solution. Then, PBS buffer solution was added thereto, and the mixture was centrifuged, and washed to obtain splenocytes. Then, the singe cells (1 ? 10^6) isolated from the spleens were aliquoted into a 24-well plate coated with anti-CD3 antibody (1 μg/mL) were treated under the condition of capable of stimulating Th17 cells (anti-CD28 antibody (1 μg/mL), TGF-β (2 ng/ mL), IL-6 (20 ng/mL), anti-IL-4 (10 μg/mL), and anti-IFN-γ (10 μg/mL); the condition of capable of stimulating Th1 cells (anti-CD28 antibody (1 μg/mL), IL-12 (10 ng/mL), and anti-IL-4 (10 μg/mL)); or the condition of capable of stimulating Th2 cells (anti-CD28 antibody (1 μg/mL), IL-4 (10 ng/mL), and anti-IFN-γ (10 μg/mL)); and the cells were cultured for 3 days, and in particular, cultured after treating the cells with halofuginone at respective concentration and cultured. Specifically, DMSO treatment was used for the control group.
# IL-17 and IL-6 = experiment: Inflammatory cytokines IL-17 and IL-6 in joint tissue staining / sera ELISA of CIA mice; format: in vivo, mouse; settings: FIG. 1C
# Protocol: (§1) For the construction of a mouse model with collagen-induced arthritis (hereinafter, referred to as “CIA”), a 6-week old male DBA/1J mouse was subjected to primary immunization by intradermal injection after mixing the bovine type II collagen (hereinafter, referred to as “CII”) and complete Freud's adjuvant (CFA) in an amount of 100 μL, respectively. After a week thereafter, halofuginone was injected intraperitoneally at 3 day intervals at a concentration of 100 μg/kg and 500 μg/kg, respectively (9 weeks).
# [4] = test system: bone marrow cells differentiating into osteoclasts; experiment: TRAP staining of bone marrow cells from arthritis animal model cultured with M-CSF and RANKL; format: in vivo, mouse; settings: bone marrow cells from treated CIA mice, cultured with M-CSF and RANKL for 7 days, FIG. 4B
# Protocol: as §1
# (§2) Accordingly, the present inventors isolated bone marrow cells from the joint of the animal model with arthritis, cultured the cells under the stimulation of M-CSF and RANKL for 7 days, and subjected them to TRAP staining using the leukocyte acid phosphatase Kit (387-A, Sigma, St. Louis, Mo., USA) according to the manufacturer's manual.
# [5] = test system: TRAP, NFATc1, b3 integrin, OSCAR, cathepsin K, and MMP9 mRNA; experiment: Real-time PCR of factors associated with osteoclast differentiation in bone marrow cells of arthritis animal model; format: in vivo, mouse; settings: bone marrow cells of CIA mice, RANKL treatment, FIG. 4C
# Protocol: as §1
# The real-time PCR was performed using the LightCycler 2.0 System Instrument and the reaction compounds were prepared by mixing 1 μL of each cDNA, 10 μL of premix Ex Taq as an enzyme for the initiation, and each primer pair to a final volume of 20 μL using distilled water. The reaction conditions were: reacted at 95° C. for 10 minutes, followed by a total of 50 cycles consisting of denaturation at 95° C. for 10 seconds, annealing at 60° C. for 5 seconds, and extension at 72° C. for 10 seconds. The values of cycle threshold (Ct) were analyzed and the amount of mRNA expression for each target was indicated in terms of the amount of beta-actin mRNA expression and the relative quantity. The primers used are shown below.
# as §2
# The primers used are shown below.
# [6] = test system: joint tissue of mouse with arthritis; experiment: Degree of joint destruction by immunohistochemical staining of CIA mouse joints; format: in vivo; settings: CIA mice, according to the concentration of treatment, FIG. 1B
# Protocol: as §1
# To examine the therapeutic effect of treating halofuginone of the present invention on arthritis, the mouse prepared in Example <1-1> (the mouse with arthritis injected with halofuginone) was sacrificed and the degree of joint destruction was analyzed via immunohistochemical staining method. The group treated with a solution in which DMSO was diluted in saline was used as the control group.
# The immunohistochemical staining method was performed by the process shown below. The joints of the mice group used above were collected, fixed with 10% neutral buffered formalin, the bones were decalcified with EDTA and embedded in paraffin, the joint tissue was prepared into 7 μm-thick slices and attached to slides. […] The immunohistochemical staining method was used in the joints of mice and analyzed under an optical microscope. […]
# [7] = condition of differentiating Th17 cells, 3 days, vs DMSO, FIG. 3A
smiles,measurement,setting,value
O=C(C[C@H]1NCCC[C@@H]1O)Cn1cnc2cc(Br)c(Cl)cc2c1=O (racemic) [halofuginone],IDO expression in dendritic cells,[1]; FIG. 3D legend,increase
same,production of IL-17,[1]; T cells co-cultured with dendritic cells co-stimulated with 1-MT (an IDO inhibitor) and halofuginone,no decrease
same,production of IL-17,"[1]; T cells co-cultured with dendritic cells stimulated with halofuginone, FIG. 3D",decrease
same,bone resorption potential,[2],significantly reduced
same,Th17 cells,[3]; [7],inhibited
same,Treg cells,[3]; [7],increased
same,production of IL-4,"[3]; conditions of differentiating Th1 cells, IFN-gamma, and Th2 cells",did not affect
same,level of inflammatory cytokine IL-6,IL-17 and IL-6,significantly decrease
same,level of inflammatory cytokine IL-17,IL-17 and IL-6,significantly decrease
same,number of TRAP positive cells,[4],decreased
same,mRNA expression level of MMP9,[5],decreased
same,mRNA expression level of NFATc1,[5],decreased
same,mRNA expression level of OSCAR,[5],decreased
same,mRNA expression level of TRAP,[5],decreased
same,mRNA expression level of b3 integrin,[5],decreased
same,mRNA expression level of cathepsin K,[5],decreased
same,joint destruction,[6],significantly decrease
